From patent US20260041683A1, “Compounds with Anti-Acinetobacter Baumannii Activity” (University of Kentucky Research Foundation, priority 2022, published 2026)
In brackets after ≈: the same amount, converted by molar mass.

Legend:
Assay in all cases: MIC determination
Format in all cases: cell-based
[1] = test system: Ab strain #275 (CDC and FDA AR Bank); conditions: Acinetobacter baumannii; Ab AR Bank #275
Experimental: (§1) All bacterial strains listed above were stored at −80° C. All strains were streaked on Mueller-Hinton (MH) plates and allowed to grow at 37° C. overnight. Enough colonies were scraped from the plate and suspended in MH broth with vortexing to reach an attenuance at 600 nm (OD600) of ˜0.5. The resulting culture was diluted 1:1000 and added to the prepared serially doubly diluted compound solutions in 96-well plates. For M. smegmatis, a 1:100 dilution of the bacteria was done in MH. All MIC values were determined using 96-well plates with low evaporation seals at least in duplicate. For each row, one well was reserved for sterile control (which consisted of 200 μL of MH medium) and another well was reserved for growth control (which consisted of 100 μL of MH medium seeded with 100 μL of bacterial culture).
(§2) Then all 46 compounds were tested against a broad panel of all 41 Ab strains from the CDC and FDA Antibiotic Resistance (AR) Isolate Bank (Table 2; data shown for 2 representative compounds), which were all highly multidrug-resistant strains, including those resistant to colistin. […] The activity of the monohydrazides was not dependent on the extent (number of resistance mutations) or severity (antibiotic MIC) of resistance. All conclusions made from Table 1 remained valid for all compounds against these 41 additional Ab strains. […] This mechanism of action will be elucidated in the proposed studies.

[2] = test system: Ab strain #277 (CDC and FDA AR Bank); conditions: Acinetobacter baumannii; Ab AR Bank #277
Experimental: as §1, §2

[3] = test system: Ab strain #282 (CDC and FDA AR Bank); conditions: Acinetobacter baumannii; Ab AR Bank #282
Experimental: as §1, §2

[4] = test system: Ab strain #283 (CDC and FDA AR Bank); conditions: Acinetobacter baumannii; Ab AR Bank #283
Experimental: as §1, §2

[5] = test system: Ab strain #284 (CDC and FDA AR Bank); conditions: Acinetobacter baumannii; Ab AR Bank #284
Experimental: as §1, §2

[6] = test system: Ab strain #285 (CDC and FDA AR Bank); conditions: Acinetobacter baumannii; Ab AR Bank #285
Experimental: as §1, §2

[7] = test system: Ab strain #286 (CDC and FDA AR Bank); conditions: Acinetobacter baumannii; Ab AR Bank #286
Experimental: as §1, §2

[8] = test system: Ab strain #287 (CDC and FDA AR Bank); conditions: Acinetobacter baumannii; Ab AR Bank #287
Experimental: as §1, §2

[9] = test system: Ab strain #289 (CDC and FDA AR Bank); conditions: Acinetobacter baumannii; Ab AR Bank #289
Experimental: as §1, §2

[10] = test system: Ab strain #290 (CDC and FDA AR Bank); conditions: Acinetobacter baumannii; Ab AR Bank #290
Experimental: as §1, §2

[11] = test system: Ab strain #291 (CDC and FDA AR Bank); conditions: Acinetobacter baumannii; Ab AR Bank #291
Experimental: as §1, §2

[12] = test system: Ab strain #292 (CDC and FDA AR Bank); conditions: Acinetobacter baumannii; Ab AR Bank #292
Experimental: as §1, §2

[13] = test system: Ab strain #293 (CDC and FDA AR Bank); conditions: Acinetobacter baumannii; Ab AR Bank #293
Experimental: as §1, §2

[14] = test system: Ab strain #294 (CDC and FDA AR Bank); conditions: Acinetobacter baumannii; Ab AR Bank #294
Experimental: as §1, §2

[15] = test system: Ab strain #295 (CDC and FDA AR Bank); conditions: Acinetobacter baumannii; Ab AR Bank #295
Experimental: as §1, §2

[16] = test system: Ab strain #296 (CDC and FDA AR Bank); conditions: Acinetobacter baumannii; Ab AR Bank #296
Experimental: as §1, §2

[17] = test system: Ab strain #297 (CDC and FDA AR Bank); conditions: Acinetobacter baumannii; Ab AR Bank #297
Experimental: as §1, §2

[18] = test system: Ab strain #298 (CDC and FDA AR Bank); conditions: Acinetobacter baumannii; Ab AR Bank #298
Experimental: as §1, §2

[19] = test system: Ab strain #299 (CDC and FDA AR Bank); conditions: Acinetobacter baumannii; Ab AR Bank #299
Experimental: as §1, §2

[20] = test system: Ab strain #300 (CDC and FDA AR Bank); conditions: Acinetobacter baumannii; Ab AR Bank #300
Experimental: as §1, §2

[21] = test system: Ab strain #301 (CDC and FDA AR Bank); conditions: Acinetobacter baumannii; Ab AR Bank #301
Experimental: as §1, §2

[22] = test system: Ab strain #302 (CDC and FDA AR Bank); conditions: Acinetobacter baumannii; Ab AR Bank #302
Experimental: as §1, §2

[23] = test system: Ab strain #306 (CDC and FDA AR Bank); conditions: Acinetobacter baumannii; Ab AR Bank #306
Experimental: as §1, §2

[24] = test system: Ab strain #308 (CDC and FDA AR Bank); conditions: Acinetobacter baumannii; Ab AR Bank #308
Experimental: as §1, §2

[25] = test system: Ab strain #310 (CDC and FDA AR Bank); conditions: Acinetobacter baumannii; Ab AR Bank #310
Experimental: as §1, §2

[26] = test system: Ab strain #311 (CDC and FDA AR Bank); conditions: Acinetobacter baumannii; Ab AR Bank #311
Experimental: as §1, §2

[27] = test system: Ab strain #313 (CDC and FDA AR Bank); conditions: Acinetobacter baumannii; Ab AR Bank #313
Experimental: as §1, §2

Compound	MIC [1] [µg/mL]	MIC [2] [µg/mL]	MIC [3] [µg/mL]	MIC [4] [µg/mL]	MIC [5] [µg/mL]	MIC [6] [µg/mL]	MIC [7] [µg/mL]	MIC [8] [µg/mL]	MIC [9] [µg/mL]	MIC [10] [µg/mL]	MIC [11] [µg/mL]	MIC [12] [µg/mL]	MIC [13] [µg/mL]	MIC [14] [µg/mL]	MIC [15] [µg/mL]	MIC [16] [µg/mL]	MIC [17] [µg/mL]	MIC [18] [µg/mL]	MIC [19] [µg/mL]	MIC [20] [µg/mL]	further results
O=C(NNc1ccc(Cl)cc1)c1ccc(F)cn1 [Compound 3e]	0.25 (≈ 0.941 µM)	0.06 (≈ 0.226 µM)	0.25 (≈ 0.941 µM)	0.5 (≈ 1.88 µM)	0.25 (≈ 0.941 µM)	0.13 (≈ 0.489 µM)	0.06 (≈ 0.226 µM)	0.13 (≈ 0.489 µM)	0.25 (≈ 0.941 µM)	0.125 (≈ 0.47 µM)	0.06 (≈ 0.226 µM)	0.25 (≈ 0.941 µM)	0.13 (≈ 0.489 µM)	0.25 (≈ 0.941 µM)	0.06 (≈ 0.226 µM)	0.06 (≈ 0.226 µM)	0.25 (≈ 0.941 µM)	0.25 (≈ 0.941 µM)	0.13 (≈ 0.489 µM)	0.25 (≈ 0.941 µM)	MIC [21]: 0.25 µg/mL (≈ 0.941 µM); MIC [22]: 0.13 µg/mL (≈ 0.489 µM); MIC [23]: 0.13 µg/mL (≈ 0.489 µM); MIC [24]: 0.13 µg/mL (≈ 0.489 µM); MIC [25]: 0.25 µg/mL (≈ 0.941 µM); MIC [26]: 0.5 µg/mL (≈ 1.88 µM); MIC [27]: 0.25 µg/mL (≈ 0.941 µM)
O=C(NNc1cccc(F)c1)c1cnccn1 [Compound 9a]	0.5 (≈ 2.15 µM)	1 (≈ 4.31 µM)	1 (≈ 4.31 µM)	0.25 (≈ 1.08 µM)	0.5 (≈ 2.15 µM)	0.5 (≈ 2.15 µM)	1 (≈ 4.31 µM)	0.5 (≈ 2.15 µM)	0.5 (≈ 2.15 µM)	1 (≈ 4.31 µM)	0.25 (≈ 1.08 µM)	0.25 (≈ 1.08 µM)	0.25 (≈ 1.08 µM)	≤ 0.13	≤ 0.13	≤ 0.13	0.5 (≈ 2.15 µM)	0.5 (≈ 2.15 µM)	0.25 (≈ 1.08 µM)	0.25 (≈ 1.08 µM)	MIC [21]: 0.25 µg/mL (≈ 1.08 µM); MIC [22]: 0.25 µg/mL (≈ 1.08 µM); MIC [23]: 0.5 µg/mL (≈ 2.15 µM); MIC [24]: 0.25 µg/mL (≈ 1.08 µM); MIC [25]: 0.5 µg/mL (≈ 2.15 µM); MIC [26]: 0.5 µg/mL (≈ 2.15 µM); MIC [27]: 0.25 µg/mL (≈ 1.08 µM)
